In ChEMBL document CHEMBL3991601, “The target landscape of clinical kinase drugs” (Science, 2017):
Calls of active or inactive are those of the source. For most assays here, no stated cut-off is given here; in the data, actives have a measured Kd and inactives only a lower limit.

What was measured:
[1] = target: U5 small nuclear ribonucleoprotein 200 kDa helicase (Homo sapiens, UniProt O75643)
[2] = target: Fibroblast growth factor receptor 1 (Homo sapiens, UniProt P11362)
[3] = target: GTP-binding protein 4 (Homo sapiens, UniProt Q9BZE4)
[4] = target: T1, Serine/threonine-protein kinase A-Raf (Homo sapiens, UniProt P10398)
T1 sequence (P10398 whole entry): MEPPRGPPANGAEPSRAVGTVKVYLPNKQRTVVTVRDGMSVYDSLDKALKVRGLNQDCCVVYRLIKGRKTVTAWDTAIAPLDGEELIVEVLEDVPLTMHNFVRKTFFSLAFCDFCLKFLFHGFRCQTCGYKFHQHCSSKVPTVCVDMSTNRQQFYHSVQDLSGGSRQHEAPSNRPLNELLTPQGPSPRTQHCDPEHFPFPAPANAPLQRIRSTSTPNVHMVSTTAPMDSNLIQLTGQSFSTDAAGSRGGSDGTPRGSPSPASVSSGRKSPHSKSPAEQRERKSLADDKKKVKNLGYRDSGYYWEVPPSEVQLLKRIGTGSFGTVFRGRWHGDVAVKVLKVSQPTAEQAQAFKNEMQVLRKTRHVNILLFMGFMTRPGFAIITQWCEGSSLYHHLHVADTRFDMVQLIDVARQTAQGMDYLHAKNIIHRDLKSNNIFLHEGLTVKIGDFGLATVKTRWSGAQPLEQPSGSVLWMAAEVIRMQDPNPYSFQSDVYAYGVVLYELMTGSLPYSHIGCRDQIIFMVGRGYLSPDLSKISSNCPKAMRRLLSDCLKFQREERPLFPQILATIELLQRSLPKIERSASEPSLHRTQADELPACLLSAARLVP

[5] = target: Ribosomal protein S6 kinase alpha-4 (Homo sapiens, UniProt O75676)
Chain of Ribosomal protein S6 kinase alpha-4 (O75676 whole entry): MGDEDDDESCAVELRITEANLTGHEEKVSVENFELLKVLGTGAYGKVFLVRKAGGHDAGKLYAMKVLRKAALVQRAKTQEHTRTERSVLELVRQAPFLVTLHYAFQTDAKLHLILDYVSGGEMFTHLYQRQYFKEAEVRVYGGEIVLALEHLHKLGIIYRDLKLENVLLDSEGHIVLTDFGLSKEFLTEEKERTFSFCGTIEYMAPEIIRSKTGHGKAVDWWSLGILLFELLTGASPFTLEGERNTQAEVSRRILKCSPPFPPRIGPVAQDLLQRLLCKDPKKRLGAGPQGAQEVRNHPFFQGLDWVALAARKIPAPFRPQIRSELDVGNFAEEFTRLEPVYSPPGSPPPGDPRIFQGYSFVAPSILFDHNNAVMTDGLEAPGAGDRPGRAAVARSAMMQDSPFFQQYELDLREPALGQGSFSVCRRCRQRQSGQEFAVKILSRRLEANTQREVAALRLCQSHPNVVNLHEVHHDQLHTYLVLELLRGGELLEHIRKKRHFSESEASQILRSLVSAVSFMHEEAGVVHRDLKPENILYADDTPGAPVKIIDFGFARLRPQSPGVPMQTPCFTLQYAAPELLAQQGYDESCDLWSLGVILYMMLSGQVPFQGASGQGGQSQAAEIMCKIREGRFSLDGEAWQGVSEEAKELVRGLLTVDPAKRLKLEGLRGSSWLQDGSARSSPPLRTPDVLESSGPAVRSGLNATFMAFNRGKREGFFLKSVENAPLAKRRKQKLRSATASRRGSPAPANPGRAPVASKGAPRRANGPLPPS

[6] = target: Tyrosine-protein kinase Lyn (Homo sapiens, UniProt P07948)
Chain of Tyrosine-protein kinase Lyn (P07948 whole entry): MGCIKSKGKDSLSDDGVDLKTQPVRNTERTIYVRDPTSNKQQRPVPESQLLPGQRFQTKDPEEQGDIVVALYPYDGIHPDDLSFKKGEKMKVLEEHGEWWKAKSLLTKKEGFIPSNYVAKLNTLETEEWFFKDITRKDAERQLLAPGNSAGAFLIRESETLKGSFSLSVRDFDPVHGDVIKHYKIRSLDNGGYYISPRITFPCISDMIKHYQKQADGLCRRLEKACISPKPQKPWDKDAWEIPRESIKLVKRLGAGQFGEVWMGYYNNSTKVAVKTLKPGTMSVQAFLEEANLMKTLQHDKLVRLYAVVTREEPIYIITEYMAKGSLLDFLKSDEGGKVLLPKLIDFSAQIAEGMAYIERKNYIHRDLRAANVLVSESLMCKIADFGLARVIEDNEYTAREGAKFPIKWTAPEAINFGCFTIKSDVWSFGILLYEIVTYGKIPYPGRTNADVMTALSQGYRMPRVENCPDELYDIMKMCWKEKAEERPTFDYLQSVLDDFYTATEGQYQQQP

[7] = target: T2, Serine/threonine-protein kinase TAO2 (Homo sapiens, UniProt Q9UL54)
T2 sequence (Q9UL54 whole entry): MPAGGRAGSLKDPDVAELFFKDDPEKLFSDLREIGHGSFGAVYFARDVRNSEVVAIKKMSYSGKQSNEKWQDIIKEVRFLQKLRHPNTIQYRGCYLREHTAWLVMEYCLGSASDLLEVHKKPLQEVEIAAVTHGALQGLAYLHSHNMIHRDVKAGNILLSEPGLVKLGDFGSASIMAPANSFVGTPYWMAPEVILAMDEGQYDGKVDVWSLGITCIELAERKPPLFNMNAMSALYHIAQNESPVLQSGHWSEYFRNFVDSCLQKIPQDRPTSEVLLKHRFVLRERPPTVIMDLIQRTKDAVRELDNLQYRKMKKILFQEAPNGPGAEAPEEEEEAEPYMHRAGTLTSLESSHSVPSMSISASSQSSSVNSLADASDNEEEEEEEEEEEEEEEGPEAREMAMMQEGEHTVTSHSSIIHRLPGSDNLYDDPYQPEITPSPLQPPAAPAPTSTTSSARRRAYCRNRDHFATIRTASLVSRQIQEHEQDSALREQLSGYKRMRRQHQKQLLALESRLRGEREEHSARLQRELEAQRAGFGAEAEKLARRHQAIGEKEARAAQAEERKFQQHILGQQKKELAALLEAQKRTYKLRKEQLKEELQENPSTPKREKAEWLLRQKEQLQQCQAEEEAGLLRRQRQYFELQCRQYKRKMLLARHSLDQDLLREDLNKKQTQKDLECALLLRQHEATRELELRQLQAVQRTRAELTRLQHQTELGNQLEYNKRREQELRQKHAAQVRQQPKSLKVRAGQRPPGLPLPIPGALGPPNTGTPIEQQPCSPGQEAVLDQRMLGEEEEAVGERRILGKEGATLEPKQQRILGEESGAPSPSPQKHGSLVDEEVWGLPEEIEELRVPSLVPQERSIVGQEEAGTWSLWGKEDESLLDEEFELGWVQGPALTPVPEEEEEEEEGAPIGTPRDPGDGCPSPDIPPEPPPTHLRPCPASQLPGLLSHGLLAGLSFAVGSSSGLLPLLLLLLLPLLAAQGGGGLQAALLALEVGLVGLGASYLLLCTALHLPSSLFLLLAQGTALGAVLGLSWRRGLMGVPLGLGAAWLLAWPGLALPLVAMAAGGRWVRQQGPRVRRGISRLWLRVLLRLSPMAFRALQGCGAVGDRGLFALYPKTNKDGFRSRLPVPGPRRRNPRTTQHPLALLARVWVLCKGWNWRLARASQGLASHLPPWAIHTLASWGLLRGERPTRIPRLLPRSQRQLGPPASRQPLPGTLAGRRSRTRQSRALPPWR

[8] = target: T3, Beta-adrenergic receptor kinase 1 (Homo sapiens, UniProt P25098)
T3 sequence (P25098 whole entry): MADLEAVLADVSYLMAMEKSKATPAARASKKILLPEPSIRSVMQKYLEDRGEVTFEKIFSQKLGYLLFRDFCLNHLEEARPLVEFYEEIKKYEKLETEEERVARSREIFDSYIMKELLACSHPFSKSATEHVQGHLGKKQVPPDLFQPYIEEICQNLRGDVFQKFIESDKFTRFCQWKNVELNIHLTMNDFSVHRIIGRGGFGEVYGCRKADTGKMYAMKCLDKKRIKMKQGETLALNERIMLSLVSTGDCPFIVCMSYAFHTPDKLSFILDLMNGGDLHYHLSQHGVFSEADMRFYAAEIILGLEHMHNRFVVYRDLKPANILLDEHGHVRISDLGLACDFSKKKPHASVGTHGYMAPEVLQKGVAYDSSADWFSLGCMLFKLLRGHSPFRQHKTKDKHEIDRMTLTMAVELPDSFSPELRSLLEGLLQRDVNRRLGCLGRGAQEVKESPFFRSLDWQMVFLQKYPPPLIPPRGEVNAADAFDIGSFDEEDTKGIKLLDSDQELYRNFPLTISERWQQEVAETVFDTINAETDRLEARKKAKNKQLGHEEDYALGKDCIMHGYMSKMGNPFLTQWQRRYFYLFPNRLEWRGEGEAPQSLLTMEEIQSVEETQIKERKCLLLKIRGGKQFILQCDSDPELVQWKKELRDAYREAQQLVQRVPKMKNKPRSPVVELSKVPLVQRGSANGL

[9] = target: Casein kinase I isoform delta (Homo sapiens, UniProt P48730)
Chain of Casein kinase I isoform delta (P48730 whole entry, canonical isoform): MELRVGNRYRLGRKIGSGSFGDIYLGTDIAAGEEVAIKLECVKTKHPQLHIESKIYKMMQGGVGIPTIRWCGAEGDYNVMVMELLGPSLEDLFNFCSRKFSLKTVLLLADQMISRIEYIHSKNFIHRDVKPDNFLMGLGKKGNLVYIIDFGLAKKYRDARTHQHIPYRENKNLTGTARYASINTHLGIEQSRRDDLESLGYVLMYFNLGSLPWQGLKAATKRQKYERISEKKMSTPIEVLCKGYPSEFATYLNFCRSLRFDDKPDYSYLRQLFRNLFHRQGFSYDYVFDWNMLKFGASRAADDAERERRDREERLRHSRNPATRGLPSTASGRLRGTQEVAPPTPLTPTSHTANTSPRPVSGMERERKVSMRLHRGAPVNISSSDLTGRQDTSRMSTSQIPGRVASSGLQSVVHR

Chain of Fibroblast growth factor receptor 1 (P11362 whole entry): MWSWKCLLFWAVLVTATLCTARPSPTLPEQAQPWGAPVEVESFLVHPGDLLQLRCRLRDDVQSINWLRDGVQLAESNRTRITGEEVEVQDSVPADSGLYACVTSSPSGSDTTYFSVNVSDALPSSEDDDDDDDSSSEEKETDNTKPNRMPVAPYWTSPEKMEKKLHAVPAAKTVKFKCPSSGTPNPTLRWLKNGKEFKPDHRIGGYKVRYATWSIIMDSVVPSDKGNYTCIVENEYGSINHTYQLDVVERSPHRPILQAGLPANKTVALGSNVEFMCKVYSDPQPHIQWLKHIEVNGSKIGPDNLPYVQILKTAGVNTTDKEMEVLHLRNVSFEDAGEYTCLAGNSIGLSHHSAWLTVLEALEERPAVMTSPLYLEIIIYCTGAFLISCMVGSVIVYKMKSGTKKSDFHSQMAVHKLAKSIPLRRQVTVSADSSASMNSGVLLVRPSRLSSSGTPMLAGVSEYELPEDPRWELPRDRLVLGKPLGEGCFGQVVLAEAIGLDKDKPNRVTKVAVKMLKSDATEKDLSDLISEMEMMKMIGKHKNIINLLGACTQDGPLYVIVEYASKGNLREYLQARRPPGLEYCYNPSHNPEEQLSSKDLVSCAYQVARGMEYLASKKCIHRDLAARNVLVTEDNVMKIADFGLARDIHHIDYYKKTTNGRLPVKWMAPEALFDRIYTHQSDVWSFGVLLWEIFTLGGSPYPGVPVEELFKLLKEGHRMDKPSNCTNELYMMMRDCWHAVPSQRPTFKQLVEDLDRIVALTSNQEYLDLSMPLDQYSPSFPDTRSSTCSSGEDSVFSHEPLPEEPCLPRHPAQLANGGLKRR
Chain of U5 small nuclear ribonucleoprotein 200 kDa helicase (O75643 whole entry): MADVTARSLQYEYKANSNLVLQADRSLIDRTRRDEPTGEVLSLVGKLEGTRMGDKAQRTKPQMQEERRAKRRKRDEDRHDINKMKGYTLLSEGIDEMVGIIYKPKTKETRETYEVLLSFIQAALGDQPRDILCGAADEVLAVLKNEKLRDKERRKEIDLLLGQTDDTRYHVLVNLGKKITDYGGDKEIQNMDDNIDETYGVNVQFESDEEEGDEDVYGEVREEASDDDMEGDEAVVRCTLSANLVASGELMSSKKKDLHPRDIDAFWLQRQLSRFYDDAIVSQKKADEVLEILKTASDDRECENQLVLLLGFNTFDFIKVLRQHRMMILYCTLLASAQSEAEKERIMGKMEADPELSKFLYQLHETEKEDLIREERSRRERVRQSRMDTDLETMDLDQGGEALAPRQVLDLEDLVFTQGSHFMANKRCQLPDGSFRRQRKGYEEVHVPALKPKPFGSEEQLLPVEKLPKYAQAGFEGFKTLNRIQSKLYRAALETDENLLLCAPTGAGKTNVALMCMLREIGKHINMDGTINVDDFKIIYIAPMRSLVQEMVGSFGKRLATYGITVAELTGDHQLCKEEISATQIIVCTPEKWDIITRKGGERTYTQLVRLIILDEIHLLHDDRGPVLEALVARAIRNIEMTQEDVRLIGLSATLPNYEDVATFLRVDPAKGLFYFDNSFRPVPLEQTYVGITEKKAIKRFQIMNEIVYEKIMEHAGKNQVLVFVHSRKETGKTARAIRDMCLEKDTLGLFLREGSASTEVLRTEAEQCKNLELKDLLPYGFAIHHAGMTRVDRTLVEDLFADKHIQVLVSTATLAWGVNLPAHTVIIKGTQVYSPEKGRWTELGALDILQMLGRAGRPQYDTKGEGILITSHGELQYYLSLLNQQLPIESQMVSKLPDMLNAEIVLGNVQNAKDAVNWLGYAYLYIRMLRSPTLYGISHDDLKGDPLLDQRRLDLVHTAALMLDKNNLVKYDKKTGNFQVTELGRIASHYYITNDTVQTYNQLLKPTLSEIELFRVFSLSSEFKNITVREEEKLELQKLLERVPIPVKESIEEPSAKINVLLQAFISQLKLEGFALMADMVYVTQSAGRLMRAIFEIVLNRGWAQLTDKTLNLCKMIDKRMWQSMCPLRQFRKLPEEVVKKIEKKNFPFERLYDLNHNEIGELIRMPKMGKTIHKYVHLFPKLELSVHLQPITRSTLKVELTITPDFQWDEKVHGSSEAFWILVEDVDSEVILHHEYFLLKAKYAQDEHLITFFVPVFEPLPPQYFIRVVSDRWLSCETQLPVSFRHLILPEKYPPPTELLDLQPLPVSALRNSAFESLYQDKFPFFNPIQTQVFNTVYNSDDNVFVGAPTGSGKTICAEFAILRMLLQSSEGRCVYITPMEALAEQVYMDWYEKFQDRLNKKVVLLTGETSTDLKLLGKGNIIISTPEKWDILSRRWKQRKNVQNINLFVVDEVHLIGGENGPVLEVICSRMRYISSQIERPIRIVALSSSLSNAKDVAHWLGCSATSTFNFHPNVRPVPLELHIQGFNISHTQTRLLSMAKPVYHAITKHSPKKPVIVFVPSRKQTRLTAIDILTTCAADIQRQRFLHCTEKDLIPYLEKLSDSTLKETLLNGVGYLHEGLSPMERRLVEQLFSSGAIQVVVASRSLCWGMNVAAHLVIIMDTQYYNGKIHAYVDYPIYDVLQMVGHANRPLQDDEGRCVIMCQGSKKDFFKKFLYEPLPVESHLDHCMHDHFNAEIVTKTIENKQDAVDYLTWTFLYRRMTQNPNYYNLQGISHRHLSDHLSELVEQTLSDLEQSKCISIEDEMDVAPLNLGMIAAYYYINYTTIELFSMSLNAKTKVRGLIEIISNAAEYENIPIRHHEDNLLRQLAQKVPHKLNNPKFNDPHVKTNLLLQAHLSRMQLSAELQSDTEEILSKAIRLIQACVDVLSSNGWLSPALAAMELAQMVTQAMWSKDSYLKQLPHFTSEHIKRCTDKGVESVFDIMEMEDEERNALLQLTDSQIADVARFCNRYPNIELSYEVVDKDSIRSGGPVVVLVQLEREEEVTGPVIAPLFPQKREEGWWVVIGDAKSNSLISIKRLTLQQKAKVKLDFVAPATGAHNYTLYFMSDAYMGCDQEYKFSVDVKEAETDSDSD

Row | Structure (SMILES) | Kd [1] | Kd [2] | Kd [3] | Kd [4] | Kd [5] | Kd [6] | Kd [7] | Kd [8] | Kd [9]
1 | CCN1CCN(Cc2ccc(Nc3ncc(F)c(-c4cc(F)c5nc(C)n(C(C)C)c5c4)n3)nc2)CC1 [ABEMACICLIB] | > 30 µM (inactive) | > 30 µM (inactive) | > 30 µM (inactive) | > 30 µM (inactive) | > 30 µM (inactive) | > 30 µM (inactive) | > 30 µM (inactive) | > 30 µM (inactive) | > 30 µM (inactive)
2 | Cc1c(NC(=O)OC[C@@H]2COCCN2)cn2ncnc(Nc3ccc4c(cnn4Cc4cccc(F)c4)c3)c12 [AC-480] | > 30 µM (inactive) | > 30 µM (inactive) | > 30 µM (inactive) | > 30 µM (inactive) | > 30 µM (inactive) | > 30 µM (inactive) | > 30 µM (inactive) | > 30 µM (inactive) | > 30 µM (inactive)
3 | CCc1cc2c(cc1N1CCC(N3CCOCC3)CC1)C(C)(C)c1[nH]c3cc(C#N)ccc3c1C2=O [ALECTINIB] | > 30 µM (inactive) | > 30 µM (inactive) | > 30 µM (inactive) | > 30 µM (inactive) | > 30 µM (inactive) | > 30 µM (inactive) | > 30 µM (inactive) | > 30 µM (inactive) | > 30 µM (inactive)
4 | COc1ccc2c(OCc3nnc4ccc(-c5ccccc5)nn34)ccnc2c1 [AMG-208] | > 30 µM (inactive) | > 30 µM (inactive) | > 30 µM (inactive) | > 30 µM (inactive) | > 30 µM (inactive) | > 30 µM (inactive) | > 30 µM (inactive) | > 30 µM (inactive) | > 30 µM (inactive)
5 | S=C(NCc1ccc2c(c1)OCO2)N1CCN(c2ncnc3c2oc2ccccc23)CC1 [AMUVATINIB] | > 30 µM (inactive) | > 30 µM (inactive) | > 30 µM (inactive) | > 30 µM (inactive) | > 30 µM (inactive) | > 30 µM (inactive) | > 30 µM (inactive) | > 30 µM (inactive) | > 30 µM (inactive)
6 | Cc1cc(Nc2nc(N[C@@H](C)c3ncc(F)cn3)ncc2Cl)n[nH]1 [AZD-1480] | > 30 µM (inactive) | 0.777 µM (active) | > 30 µM (inactive) | > 30 µM (inactive) | > 30 µM (inactive) | > 30 µM (inactive) | > 30 µM (inactive) | > 30 µM (inactive) | > 30 µM (inactive)
7 | COc1ccc(-c2ccc3ncc4c(c3c2)n(-c2ccc(N3CCNCC3)c(C(F)(F)F)c2)c(=O)n4C)cn1 [BGT-226 FREE BASE] | > 30 µM (inactive) | > 30 µM (inactive) | > 30 µM (inactive) | > 30 µM (inactive) | > 30 µM (inactive) | > 30 µM (inactive) | > 30 µM (inactive) | > 30 µM (inactive) | > 30 µM (inactive)
8 | COc1cccc(Nc2ncnn3ccc(CN4CC[C@@H](N)[C@H](O)C4)c23)c1 [BMS-690514] | > 30 µM (inactive) | > 30 µM (inactive) | > 30 µM (inactive) | > 30 µM (inactive) | > 30 µM (inactive) | 0.887 µM (active) | > 30 µM (inactive) | > 30 µM (inactive) | > 30 µM (inactive)
9 | COc1cc2nccc(Oc3ccc(NC(=O)C4(C(=O)Nc5ccc(F)cc5)CC4)cc3)c2cc1OC [CABOZANTINIB] | > 30 µM (inactive) | > 30 µM (inactive) | > 30 µM (inactive) | > 30 µM (inactive) | > 30 µM (inactive) | 1.33 µM (active) | > 30 µM (inactive) | > 30 µM (inactive) | > 30 µM (inactive)
10 | c1cc(OCCN2CCCCC2)cc(-c2n[nH]c3ccc(-c4nc[nH]n4)cc23)c1 [CC-401] | > 30 µM (inactive) | > 30 µM (inactive) | > 30 µM (inactive) | > 30 µM (inactive) | > 30 µM (inactive) | > 30 µM (inactive) | > 30 µM (inactive) | > 30 µM (inactive) | 0.287 µM (active)
11 | CC1(COc2ccc3c(c2)ncn3-c2ccc3cccc(N4CCC(N)CC4)c3n2)COC1 [CRENOLANIB] | > 30 µM (inactive) | > 30 µM (inactive) | > 30 µM (inactive) | > 30 µM (inactive) | > 30 µM (inactive) | > 30 µM (inactive) | > 30 µM (inactive) | > 30 µM (inactive) | > 30 µM (inactive)
12 | COc1cc2ncnc(Nc3ccc(F)c(Cl)c3)c2cc1NC(=O)/C=C/CN1CCCCC1 [DACOMITINIB ANHYDROUS] | > 30 µM (inactive) | > 30 µM (inactive) | > 30 µM (inactive) | > 30 µM (inactive) | > 30 µM (inactive) | > 30 µM (inactive) | > 30 µM (inactive) | > 30 µM (inactive) | > 30 µM (inactive)
13 | CC[C@@](C)(Nc1ccnc(-c2c[nH]c3ncccc23)n1)C(=O)NCC(F)(F)F [DECERNOTINIB] | > 30 µM (inactive) | > 30 µM (inactive) | > 30 µM (inactive) | > 30 µM (inactive) | > 30 µM (inactive) | > 30 µM (inactive) | > 30 µM (inactive) | > 30 µM (inactive) | > 30 µM (inactive)
14 | CNC(=O)c1ccc(Nc2ncc(C(F)(F)F)c(NCc3nccnc3N(C)S(C)(=O)=O)n2)cc1 [DEFACTINIB] | > 30 µM (inactive) | > 30 µM (inactive) | > 30 µM (inactive) | > 30 µM (inactive) | > 30 µM (inactive) | > 30 µM (inactive) | > 30 µM (inactive) | > 30 µM (inactive) | > 30 µM (inactive)
15 | COc1cc(Nc2ncc(F)c(Nc3ccc4c(n3)N(COP(=O)(O)O)C(=O)C(C)(C)O4)n2)cc(OC)c1OC [FOSTAMATINIB] | > 30 µM (inactive) | > 30 µM (inactive) | > 30 µM (inactive) | > 30 µM (inactive) | > 30 µM (inactive) | > 30 µM (inactive) | > 30 µM (inactive) | > 30 µM (inactive) | > 30 µM (inactive)
